Source: patent US20230233532A1, “SPHINGOSINE-1-PHOSPHATE RECEPTOR 1 AGONIST AND LIPOSOMAL FORMULATIONS THEREOF” (The Penn State Research Foundation, priority 2020, published 2023)
Values belong to the compound of their own block, whether it stands above or below them.

How the values were obtained:
[1] = test system: intact rat mesenteric venules; test: Hydraulic conductivity (Lp) in individually perfused rat mesenteric microvessels; type: in vivo
Description: Experiments were undertaken on mesenteric venules from female Sprague-Dawley rats (2-3-month old, 220-250 g body weight, Sage Laboratory). Inactin hydrate was used for anesthesia through subcutaneous administration. The initial dosage of inactin was 180 mg/kg body weight and an additional 5 mg/dose given as needed. After the rat reached the appropriate plane of anesthesia, determined by the loss of the toe pinch response and the righting reflex, a midline surgical incision was made in the abdominal wall. A loop of the ileum was gently extended from the abdominal cavity and the mesentery was spread over a pillar attached to an animal tray. The upper surface of the mesentery was continuously perfused with mammalian Ringer's solution at 37° C. All experiments were carried out on venules with diameters ranging between […]. Each experiment was performed on a single vessel with one experiment per animal. Euthanasia was performed through bilateral thoracotomy while animals were under anesthesia. Microvessel permeability was assessed by measuring one of the permeability coefficients, hydraulic conductivity, Lp, using the modified […] technique. The assumptions and limitations of the method have been evaluated in detail (31-33). […] The initial water flux (Jv) per unit area of microvessel wall (S), (Jv/S)0, was calculated from the velocity of the marker cell after the vessel was occluded, the vessel radius, and the length between the marker cell and the occlusion site. Microvessel Lp was calculated from the Starling equation, Lp=(Jv/S)/ΔP, where ΔP represents the pressure difference between the hydrostatic pressure applied to the microvessel and the effective oncotic pressure generated from the albumin in the perfusate, assuming the tissue hydrostatic and oncotic pressures are negligible (31). In each experiment, baseline Lp and the stimulus-induced Lp changes were measured in the same vessel, which allows the changes to be compared with its own control. […]

[2] = test system: HUVEC; test: HUVEC monolayer model of endothelial gap formation (VE-cadherin staining); type: cell-based, human; settings: for EC gap formation induced by VEGF / EC gap formation induced by IL-8 / EC gap formation induced by BK / EC gap formation, agonist alone: 5 μM; for EC gap formation induced by VEGF: 100 ng/ml VEGF; for EC gap formation induced by IL-8: 150 ng/ml IL-8; for EC gap formation induced by BK: 0.5 μM BK; for EC gap formation, agonist alone: no inflammatory mediator; for EC gap formation, screening of inflammatory inhibitors: FIG. 8, 5 μM
Description: HUVECs were seeded on coverslips coated with fibronectin (Millipore Sigma) and cultured to confluency. […] HUVECs fixed with 2% cold paraformaldehyde (Electron Microscopy Science) and treated with 0.1% triton X-100 (Fisher) were exposed to a human VE-cadherin antibody (Santa Cruz) followed by the secondary antibody conjugated with Alexa488 (Invitrogen). Coverslips were mounted to slides using the antifade mounting medium with DAPI (Vector Laboratories).

[3] = test system: A375M-GFP melanoma cells; test: Experimental lung metastasis model, A375M-GFP; type: in vivo, Athymic Foxn1nu nude mice; settings: 5 mg/kg intraperitoneally 6, 12 or 18 hours before cells, day 29; control 62
Description: […] lacking Compound I (Lipo) vehicle control, for 6, 12 or 18 hours prior to intravenous injection of 1 million A375M-GFP cells through the tail vein. […] For experiments using UACC 903M-GFP and 1205Lu-GFP cells, 15 mg/kg of the nanoliposomal formulation were given 6 hours before cancer cell injection. Body weight was monitored to ensure no significant toxicity during the experimental metastasis assay. On day 29, whole lungs were removed and imaged by fluorescent microscopy to quantify the numbers of metastatic nodules in a double-blinded manner.

[4] = target: S1PR1 (Homo sapiens, UniProt P21453); test: S1P1 GPCR cell-based agonist arrestin biosensor assay (Eurofins DiscoverX); settings: FIG. 1C
Sequence of S1PR1 (P21453 whole entry): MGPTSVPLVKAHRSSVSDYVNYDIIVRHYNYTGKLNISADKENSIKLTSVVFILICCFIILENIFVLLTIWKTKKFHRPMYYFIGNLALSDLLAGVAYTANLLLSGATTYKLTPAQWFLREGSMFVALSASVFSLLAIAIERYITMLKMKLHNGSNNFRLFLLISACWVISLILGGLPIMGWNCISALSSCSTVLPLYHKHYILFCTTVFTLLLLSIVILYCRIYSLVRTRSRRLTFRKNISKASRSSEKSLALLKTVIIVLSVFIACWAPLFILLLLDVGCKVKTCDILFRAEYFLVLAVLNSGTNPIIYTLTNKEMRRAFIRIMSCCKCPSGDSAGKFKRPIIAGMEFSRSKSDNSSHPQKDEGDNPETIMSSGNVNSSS
Excerpt: 4-Phenyl-5-trifluoromethyl-thiophene-2-carboxylic acid (1) was first converted in situ to the corresponding acid chloride by treating with oxalyl chloride in the presence of catalytic N,N-dimethyl formamide. […] The structures of Intermediate 3 and Compound I were characterized on the basis of NMR and mass spectrometry.

[5] = test system: myosin light chain (MLC) phosphorylation; test: Western blotting of MLC phosphorylation in HUVEC; type: cell-based, human
Description: (§1) A monolayer of HUVEC cells following varying treatments were lyzed in RIPA buffer containing protease and phosphatase inhibitors (Pierce Biotechnologies). 20 μg of cell lysate was used for western blotting and probed with antibodies according to the suppliers' recommendations to assess off target effects on several major signaling pathways. Antibodies to p-ERK, ERK, p-PI3K, PI3K, p-FAK, FAK, p-PAK1, PAK1, p-PAK2, PAK2, p-MLC, p-NF-κB, NF-κB were used to probe western blots (Cell Signaling). α-Tubulin (Millipore Sigma) was used as a loading control.

[6] = test system: MAPK/ERK, PI3K/AKT, NF-κB and vascular permeability regulation pathways; test: Off-target effects on key signaling pathways by western blotting in HUVEC; type: cell-based, human; settings: versus DMSO control
Description: as §1

[7] = test system: S1PR1 in HEK293A-S1P1-GFP cells; test: S1PR1 internalization assay; type: cell-based; settings: 5 μM W146
Description: […] cells were plated on collagen-coated coverslips (30). Cells were cultured overnight in DMEM with 2% charcoal-stripped serum. Prior to the experiment, cells were cultured in serum-free DMEM for 1.5 hours.

SMILES: FC(F)(F)c1cccc(-c2noc(-c3cc(-c4ccccc4)c(C(F)(F)F)s3)n2)c1 [SEW2871]
PAF-induced mean Lp ([1]; PAF 10 nM in presence of SEW2871 10 PM (printed), n=6): 1.73±0.15 times that of the control | effect on baseline Lp ([1]; SEW2871 10 PM (printed), perfusion 30 minutes): did not change the baseline Lp | EC gap formation induced by VEGF [2]: reduced the EC gap formation | EC gap formation induced by IL-8 [2]: reduced the EC gap formation | EC gap formation induced by BK [2]: reduced the EC gap formation | EC gap formation, agonist alone [2]: did not affect EC gap formation | EC gap formation, screening of inflammatory inhibitors [2]: inhibited EC gap formation | endothelial gap formation induced by MIC-1 and BK ([2]; confluent HUVEC monolayer): inhibited the endothelial gap formation | metastatic nodules in the lung [3]: 17-27

SMILES: CC(=O)N1CCN(C(=O)/C=C/c2ccc(Sc3ccccc3C(C)C)c([N+](=O)[O-])c2)CC1 [Compound A286982]
EC gap formation, screening of inflammatory inhibitors [2]: did not decrease EC gap formation

EC50 [4]: 0.043 µM | MLC phosphorylation induced by MIC-1 and inflammatory mediators ([5]; FIG. 15E): inhibited the MLC phosphorylation
SMILES: Oc1cccc(-c2noc(-c3cc(-c4ccccc4)c(C(F)(F)F)s3)n2)c1 [Compound I, 3-[5-(4-Phenyl-5-trifluoromethyl-thiophen-2-yl)-[1,2,4]oxadiazol-3-yl]-phenol]
EC gap formation induced by VEGF [2]: reduced the EC gap formation | EC gap formation induced by IL-8 [2]: reduced the EC gap formation | EC gap formation induced by BK [2]: reduced the EC gap formation | EC gap formation, agonist alone [2]: did not affect EC gap formation | EC gap formation, screening of inflammatory inhibitors [2]: inhibited EC gap formation | endothelial gap formation induced by MIC-1 and BK ([2]; confluent HUVEC monolayer): inhibited the endothelial gap formation | endothelial gap formation induced by MIC-1 and VEGF ([2]; confluent HUVEC monolayer): inhibited the endothelial gap formation | pMLC levels raised by BK, VEGF or IL-8 ([5]; HUVEC, western blotting): reverse and decrease the pMLC levels | pMLC levels, Compound I alone ([5]; HUVEC, western blotting): did not increase pMLC levels | levels or activity of biomarker proteins in signaling pathways (off-target effects) [6]: No significant changes

SMILES: COC(=O)c1ccc2c(c1)NC(=O)/C2=C(\Nc1ccc(N(C)C(=O)CN2CCN(C)CC2)cc1)c1ccccc1 [Nintedanib]
EC gap formation, screening of inflammatory inhibitors [2]: did not decrease EC gap formation

SMILES: C=CC[C@@H]1/C=C(\C)C[C@H](C)C[C@H](OC)[C@H]2O[C@@](O)(C(=O)C(=O)N3CCCC[C@H]3C(=O)O[C@H](/C(C)=C/[C@@H]3CC[C@@H](O)[C@H](OC)C3)[C@H](C)[C@@H](O)CC1=O)[C@H](C)C[C@@H]2OC [Tacrolimus]
EC gap formation, screening of inflammatory inhibitors [2]: did not decrease EC gap formation

SMILES: O=C(Nc1c(Cl)cncc1Cl)c1ccc(OC(F)F)c(OCC2CC2)c1 [Roflumilast]
EC gap formation, screening of inflammatory inhibitors [2]: did not decrease EC gap formation

SMILES: CCCCCCc1cccc(NC(=O)[C@H](N)CCP(=O)(O)O)c1 [Compound W146]
effect of W146 on the formulation's inhibition of PAF-induced Lp increase ([1]; W146 10 μM): abolished the effect of the nanoliposomal formulation | effect of W146 on Compound I inhibition of BK-mediated EC gap formation ([2]; 5 μM W146): blocked the effect of Compound I | effect of W146 on internalization mediated by Compound I and SEW2871 [7]: blocked
